Patent US9687479B2, “Multisubstituted aromatic compounds as serine protease inhibitors” (VERSEON CORPORATION, priority 2013, dated 2017)

Molecular target: Human thrombin (Homo sapiens (Human), UniProt P00734)
Experiment: Thrombin protease activity inhibition assay (chromogenic substrate S-2238)
Type: biochemical
Conditions: 3 nM thrombin, 125 μM S-2238, 10 min pre-incubation, RT
Method: The thrombin activity reported herein (e.g., Table A) was obtained as follows. […] Thrombin was assayed in buffer containing 0.05 M Tris (pH 7.4), 0.015 M NaCl and 0.01% PEG-8000. The final concentration of enzyme used was 3 nM thrombin. […] All assays were performed in 96-well microtiter plates at room temperature (RT). […] Inhibitor IC50 values were determined by adding test compound as ten point, three-fold serial dilutions in buffer solution, as known in the art. The plate was read at 10 minutes after substrate addition. The IC50 was calculated by plotting the percent (%) inhibition against compound concentration and fitting the data to a constrained four parameter sigmoidal curve, as known in the art.

Structure (SMILES) | IC50 [nM]
O=C(c1ccoc1)n1nc(-c2cccn(Cc3cccc(Cl)c3)c2=O)cc1NCc1ccc(Cl)s1 [Cmpd 33, 1-[(3-chlorophenyl)methyl]-3-(5-[(5-chlorothiophen-2-yl)methyl]amino-1-[(furan-3-yl)carbonyl]-1H-pyrazol-3-yl)-1,2-dihydropyridin-2-one] | < 100
O=C(c1ccco1)n1nc(-c2cccn(Cc3ccncc3)c2=O)cc1NCc1ccc(Cl)s1 [Cmpd 166, 3-(5-[(5-chlorothiophen-2-yl)methyl]amino-1-[(furan-2-yl)carbonyl]-1H-pyrazol-3-yl)-1-(pyridin-4-ylmethyl)-1,2-dihydropyridin-2-one] | < 100
CC(C)(C)C(=O)n1nc(-c2cccn(CCN3CCOCC3)c2=O)cc1NCc1ccc(Cl)s1 [Cmpd 89, 3-(5-[(5-chlorothiophen-2-yl)methyl]amino-1-(2,2-dimethylpropanoyl)-1H-pyrazol-3-yl)-1-[2-(morpholin-4-yl)ethyl]-1,2-dihydropyridin-2-one] | < 100
O=C(c1ccco1)n1nc(-c2cccn(Cc3cccnn3)c2=O)cc1NCc1ccc(Cl)s1 [Cmpd 163, 3-(5-[(5-chlorothiophen-2-yl)methyl]amino-1-[(furan-2-yl)carbonyl]-1H-pyrazol-3-yl)-1-(pyridazin-3-ylmethyl)-1,2-dihydropyridin-2-one] | > 100000
COc1ccccc1C(=O)n1nc(-c2cccn(Cc3ccc(Cl)cc3)c2=O)cc1NCc1ccc(Cl)s1 [Cmpd 36, 1-[(4-chlorophenyl)methyl]-3-(5-[(5-chlorothiophen-2-yl)methyl]amino-1-[(2-methoxyphenyl)carbonyl]-1H-pyrazol-3-yl)-1,2-dihydropyridin-2-one] | < 100
O=C(c1ccsc1)n1nc(-c2cccn(Cc3ccncc3)c2=O)cc1NCc1ccc(Cl)s1 [Cmpd 200, 3-(5-[(5-chlorothiophen-2-yl)methyl]amino-1-[(thiophen-3-yl)carbonyl]-1H-pyrazol-3-yl)-1-(pyridin-4-ylmethyl)-1,2-dihydropyridin-2-one] | < 100
O=C(c1ccco1)n1nc(-c2cccn(CCN3CCOCC3)c2=O)cc1NCc1ccc(Cl)s1 [Cmpd 170, 3-(5-[(5-chlorothiophen-2-yl)methyl]amino-1-[(furan-2-yl)carbonyl]-1H-pyrazol-3-yl)-1-[2-(morpholin-4-yl)ethyl]-1,2-dihydropyridin-2-one] | > 100000
O=C(c1ccoc1)n1nc(-c2cccn(Cc3ccoc3)c2=O)cc1NCc1ccc(Cl)s1 [Cmpd 173, 3-(5-[(5-chlorothiophen-2-yl)methyl]amino-1-[(furan-3-yl)carbonyl]-1H-pyrazol-3-yl)-1-(furan-3-ylmethyl)-1,2-dihydropyridin-2-one] | < 100
O=C(c1ccccc1)n1nc(-c2cccn(Cc3ccoc3)c2=O)cc1NCc1ccc(Cl)s1 [Cmpd 64, 3-(1-benzoyl-5-[(5-chlorothiophen-2-yl)methyl]amino-1H-pyrazol-3-yl)-1-(furan-3-ylmethyl)-1,2-dihydropyridin-2-one] | < 100
O=C(c1ccoc1)n1nc(-c2cccn(Cc3ccc4ccccc4c3)c2=O)cc1NCc1ccc(Cl)s1 [Cmpd 175, 3-(5-[(5-chlorothiophen-2-yl)methyl]amino-1-[(furan-3-yl)carbonyl]-1H-pyrazol-3-yl)-1-(naphthalen-2-ylmethyl)-1,2-dihydropyridin-2-one] | < 100
O=C(c1ccoc1)n1nc(-c2cccn(Cc3ncccn3)c2=O)cc1NCc1ccc(Cl)s1 [Cmpd 178, 3-(5-[(5-chlorothiophen-2-yl)methyl]amino-1-[(furan-3-yl)carbonyl]-1H-pyrazol-3-yl)-1-(pyrimidin-2-ylmethyl)-1,2-dihydropyridin-2-one] | < 100
Nc1cc(-c2cccn(Cc3ccccn3)c2=O)nn1C(=O)c1ccco1 [Cmpd 256, 3-5-amino-1-[(furan-2-yl)carbonyl]-1H-pyrazol-3-yl-1-(pyridin-2-ylmethyl)-1,2-dihydropyridin-2-one] | 1000 to 10000
O=C(c1cccc2c1OCCO2)n1nc(-c2cccn(Cc3cccnc3)c2=O)cc1NCc1ccc(Cl)s1 [Cmpd 114, 3-(5-[(5-chlorothiophen-2-yl)methyl]amino-1-[(2,3-dihydro-1,4-benzodioxin-5-yl)carbonyl]-1H-pyrazol-3-yl)-1-(pyridin-3-ylmethyl)-1,2-dihydropyridin-2-one] | < 100

Other lines, results leading:

IC50 [nM] | Structure (SMILES)
> 100000 | O=C(c1cccs1)n1nc(-c2cccn(Cc3cccnn3)c2=O)cc1NCc1ccc(Cl)s1 [Cmpd 185, 3-(5-[(5-chlorothiophen-2-yl)methyl]amino-1-[(thiophen-2-yl)carbonyl]-1H-pyrazol-3-yl)-1-(pyridazin-3-ylmethyl)-1,2-dihydropyridin-2-one]
< 100 | CC(C)(C)C(=O)n1nc(-c2cccn(Cc3ccccc3Cl)c2=O)cc1NCc1ccc(Cl)s1 [Cmpd 27, 1-[(2-chlorophenyl)methyl]-3-(5-[(5-chlorothiophen-2-yl)methyl]amino-1-(2,2-dimethylpropanoyl)-1H-pyrazol-3-yl)-1,2-dihydropyridin-2-one]
< 100 | O=C(c1ccsc1)n1nc(-c2cccn(Cc3cccnn3)c2=O)cc1NCc1ccc(Cl)s1 [Cmpd 197, 3-(5-[(5-chlorothiophen-2-yl)methyl]amino-1-[(thiophen-3-yl)carbonyl]-1H-pyrazol-3-yl)-1-(pyridazin-3-ylmethyl)-1,2-dihydropyridin-2-one]
< 100 | O=C(c1ccc(N2CCOCC2)cc1)n1nc(-c2cccn(Cc3cccnn3)c2=O)cc1NCc1ccc(Cl)s1 [Cmpd 211, 3-(5-[(5-chlorothiophen-2-yl)methyl]amino-1-[4-(morpholin-4-yl)phenyl]carbonyl-1H-pyrazol-3-yl)-1-(pyridazin-3-ylmethyl)-1,2-dihydropyridin-2-one]
< 100 | CC(C)(C)C(=O)n1nc(-c2cccn(Cc3cccc4ccccc34)c2=O)cc1NCc1ccc(Cl)s1 [Cmpd 79, 3-(5-[(5-chlorothiophen-2-yl)methyl]amino-1-(2,2-dimethylpropanoyl)-1H-pyrazol-3-yl)-1-(naphthalen-1-ylmethyl)-1,2-dihydropyridin-2-one]
< 100 | CC(C)(C)c1ccc(C(=O)n2nc(-c3ccc[nH]c3=O)cc2NCc2ccc(Cl)s2)cc1 [Cmpd 253, 3-1-[(4-tert-butylphenyl)carbonyl]-5-[(5-chlorothiophen-2-yl)methyl]amino-1H-pyrazol-3-yl-1,2-dihydropyridin-2-one]
< 100 | O=C(c1cccc2c1OCCO2)n1nc(-c2cccn(Cc3ccco3)c2=O)cc1NCc1ccc(Cl)s1 [Cmpd 110, 3-(5-[(5-chlorothiophen-2-yl)methyl]amino-1-[(2,3-dihydro-1,4-benzodioxin-5-yl)carbonyl]-1H-pyrazol-3-yl)-1-(furan-2-ylmethyl)-1,2-dihydropyridin-2-one]
< 100 | COCCOc1ccc(C(=O)n2nc(-c3ccc[nH]c3=O)cc2NCc2ccc(Cl)s2)cc1 [Cmpd 206, 3-(5-[(5-chlorothiophen-2-yl)methyl]amino-1-[4-(2-methoxyethoxy)phenyl]carbonyl-1H-pyrazol-3-yl)-1,2-dihydropyridin-2-one]
< 100 | O=C(c1ccc(N2CCOCC2)cc1)n1nc(-c2cccn(Cc3ncccn3)c2=O)cc1NCc1ccc(Cl)s1 [Cmpd 215, 3-(5-[(5-chlorothiophen-2-yl)methyl]amino-1-[4-(morpholin-4-yl)phenyl]carbonyl-1H-pyrazol-3-yl)-1-(pyrimidin-2-ylmethyl)-1,2-dihydropyridin-2-one]
